# Laboratory results reported in patent US20260191782A1, “URIDINE TRIACETATE AMORPHOUS FORMULATION AND USES THEREOF” (PHARMA CINQ, LLC, priority 2022, published 2026).
# Experiments:
# [1] = cited from earlier work
# [2] = test system: primary mitochondrial disease; assay: Treatment of primary mitochondrial disease (patient example); format: in vivo, human; settings: PMD patient, dose increased to 100 mg/kg/dose twice daily
# Excerpt: A patient is diagnosed with primary mitochondrial disease by identification of pathogenic mutations known to impair mitochondrial oxidative phosphorylation (by whole exome sequencing and comparison with a database of known pathogenic genetic variants) combined with symptoms consistent with PMD, in this case including recurrent epileptic seizures, developmental delays, proximal renal tubular acidosis requiring bicarbonate supplementation, and exercise intolerance with early onset of fatigue during exertion. […] Within about one week, seizure frequency declines by more than 50%, and daily bicarbonate requirements to compensate for excessive urinary excretion due to proximal tubular acidosis is reduced from 200 milliEquivalents per day to less than 25. With the therapeutic goal of maintaining plasma bicarbonate above 20 mEq/liter. After several additional weeks, endurance during exercise improves, as measured by timed walking distance and standard clinical measures of subjective fatigue.
smiles,measurement,setting,value
"CC(=O)OC[C@H]1O[C@@H](n2ccc(=O)[nH]c2=O)[C@H](OC(C)=O)[C@@H]1OC(C)=O [Uridine triacetate, 2′,3′,5′-Tri-O-acetyluridine]",solubility in water,[1],approximately 10 milligrams per milliliter
same,seizure frequency,[2],decreases further
